Laboratory results as given in paper PMC9524145, “Open channel block of Kv1.5 channels by HMQ1611” (Frontiers in Pharmacology, 2022).

How the values were obtained:
Type in all cases: cell-based
[1] = molecular target: T1, hKv1.5 L510A mutant channel (Homo sapiens, UniProt P22460, L510A); assay: whole-cell patch-clamp of L510A mutant hKv1.5 current in CHO cells; details: 5 μM HMQ1611, late current at +30 mV, n = 6, p < 0.01 vs. WT
T1 construct: Full-length cDNA encoding wild-type (WT) hKv1.5 (KCNA5) subcloned into the pcDNA3.1 expression vector; expressed in transfected cells; host or cells: CHO cells, transient transfection (pcDNA3.1), GFP cDNA co-transfected as a separate marker
Description: (§1) Full-length cDNA encoding wild-type (WT) hKv1.5 (KCNA5) subcloned into the pcDNA3.1 expression vector was kindly provided by Dr. David Fedida (University of British Columbia, Canada). All hKv1.5 mutants (T462C, H463C, T479A, T480A, R487V, A501V, I502A, V505A, I508A, A509G, L510A, V512A, and V516A cDNAs) were constructed using a QuickChange II XL site-directed mutagenesis kit according to the manufacturer’s instructions (Stratagene, La Jolla, CA, USA) and subcloned into the pcDNA3.1. All mutants were fully sequenced (ABI3100x; Applied Biosystems, Foster City, CA, USA) to ensure fidelity.
(§2) WT or mutant hKv1.5 cDNA was transiently transfected into CHO cells together with green fluorescent protein (GFP) cDNA (0.5 μg WT or mutant hKv1.5 + 0.5 μg GFP) using Lipofectamine (Invitrogen Life Technologies, Carlsbad, CA, USA). […]
(§3) Kv1.5 currents were recorded using an EPC-8 patch-clamp amplifier (HEKA, Lambrecht, Germany) at 25°C. […]
(§4) The concentration–response curve for inhibition of hKv1.5 current by HMQ1611 was drawn by a least-squares fit of the Hill equation: %Control=1/(1+(IC50/[D])^nH), (2) where % Control represents the current in presence of the drug normalized with reference to the control amplitude (expressed as a percentage), IC50 is the concentration of HMQ1611 causing a half-maximal inhibition, nH is the Hill coefficient, and [D] is the drug concentration. […]

[2] = molecular target: T2, hKv1.5 T480A mutant channel (Homo sapiens, UniProt P22460, T480A); assay: whole-cell patch-clamp of T480A mutant hKv1.5 current in CHO cells
T2 construct: Full-length cDNA encoding wild-type (WT) hKv1.5 (KCNA5) subcloned into the pcDNA3.1 expression vector; expressed in transfected cells; host or cells: CHO cells, transient transfection (pcDNA3.1), GFP cDNA co-transfected as a separate marker
Description: as §1, §2, §3, §4

[3] = molecular target: T3, hKv1.5 T479A mutant channel (Homo sapiens, UniProt P22460, T479A); assay: whole-cell patch-clamp of T479A mutant hKv1.5 current in CHO cells; details: 5 μM HMQ1611, late current at +30 mV, n = 8, p < 0.01 vs. WT
T3 construct: Full-length cDNA encoding wild-type (WT) hKv1.5 (KCNA5) subcloned into the pcDNA3.1 expression vector; expressed in transfected cells; host or cells: CHO cells, transient transfection (pcDNA3.1), GFP cDNA co-transfected as a separate marker
Description: as §1, §2, §3, §4

[4] = molecular target: T4, hKv1.5 V505A mutant channel (Homo sapiens, UniProt P22460, V505A); assay: whole-cell patch-clamp of V505A mutant hKv1.5 current in CHO cells
T4 construct: Full-length cDNA encoding wild-type (WT) hKv1.5 (KCNA5) subcloned into the pcDNA3.1 expression vector; expressed in transfected cells; host or cells: CHO cells, transient transfection (pcDNA3.1), GFP cDNA co-transfected as a separate marker
Description: as §1
(§5) WT or mutant hKv1.5 cDNA was transiently transfected into CHO cells together with green fluorescent protein (GFP) cDNA (0.5 μg WT or mutant hKv1.5 + 0.5 μg GFP) using Lipofectamine (Invitrogen Life Technologies, Carlsbad, CA, USA). Patch-clamp experiments were conducted on GFP-positive cells 48 h after transfection.
(§6) Kv1.5 currents were recorded using an EPC-8 patch-clamp amplifier (HEKA, Lambrecht, Germany) at 25°C. The data were low-pass filtered at 1 kHz, acquired at 5 kHz through an LIH-1600 analogue-to-digital converter (HEKA), and stored on a hard disc drive using Pulse/PulseFit software (HEKA). For experiments to measure the activation time course of hKv1.5 currents, the data were low-pass filtered at 10 kHz and sampled at 50 kHz. […] Cells attached to glass cover slips were transferred to a recording chamber (0.5 ml in volume) mounted on the stage of an inverted microscope (ECLIPSE TE2000-U, Nikon, Tokyo, Japan) and perfused continuously with Tyrode solution at a flow rate of 1 ml/min.
as §4

[5] = molecular target: T5, hKv1.5 V512A mutant channel (Homo sapiens, UniProt P22460, V512A); assay: whole-cell patch-clamp of V512A mutant hKv1.5 current in CHO cells; details: 5 μM HMQ1611, late current at +30 mV, n = 6, p < 0.01 vs. WT
T5 construct: Full-length cDNA encoding wild-type (WT) hKv1.5 (KCNA5) subcloned into the pcDNA3.1 expression vector; expressed in transfected cells; host or cells: CHO cells, transient transfection (pcDNA3.1), GFP cDNA co-transfected as a separate marker
Description: as §1, §2, §3, §4

[6] = molecular target: T6, wild-type (WT) hKv1.5 (KCNA5) channel (Homo sapiens, UniProt P22460); assay: whole-cell patch-clamp of wild-type hKv1.5 current in transfected CHO cells
T6 construct: Full-length cDNA encoding wild-type (WT) hKv1.5 (KCNA5) subcloned into the pcDNA3.1 expression vector; expressed in transfected cells; host or cells: CHO cells, transient transfection (pcDNA3.1), GFP cDNA co-transfected as a separate marker
Procedure: Chinese hamster ovary (CHO) cells donated by Dr. Takeru Makiyama (Kyoto University Graduate School of Medicine, Japan) were cultured in Dulbecco’s modified Eagle’s medium/Ham’s F-12 (DMEM/F-12) medium supplemented with 10% fetal bovine serum and antibiotics (100 IU/ml penicillin and 100 μg/ml streptomycin) in a humidified atmosphere with 5% CO2 and 95% air at 37°C. Cells were passaged every 3–4 days with trypsin–EDTA, and a portion of the cells was seeded onto glass cover slips (5 × 3 mm^2) for subsequent transfection.
as §1, §5, §6
hKv1.5 channel currents were elicited by applying 300 ms depolarizing steps from a holding potential of -80 mV to various levels of -50 mV to +50 mV in 10 mV steps with a return potential of -40 mV, and each stimulus interval was longer than 10 s. Voltage-dependent activation of hKv1.5 channels was assessed by fitting the normalized I–V relations of the tail currents to a Boltzmann equation: Itail=1/(1+exp((V1/2−Vm)/k)), (1) where I tail is the tail current amplitude normalized with reference to the maximum value measured at +50 mV, V 1/2 is the voltage at half-maximal activation, V m is the test potential, and k is the slope factor.
The concentration–response curve for inhibition of hKv1.5 current by HMQ1611 was drawn by a least-squares fit of the Hill equation: %Control=1/(1+(IC50/[D])^nH), (2) where % Control represents the current in presence of the drug normalized with reference to the control amplitude (expressed as a percentage), IC50 is the concentration of HMQ1611 causing a half-maximal inhibition, nH is the Hill coefficient, and [D] is the drug concentration.
The apparent rate constants for binding (k +1) and unbinding (k -1) were obtained by fitting the equation: τD=1/(k+1[D]+k−1), (3) where τD is the drug-induced time constant, which was calculated from single exponential fits to the traces of current decay during the depolarizing step to +30 mV.
The apparent dissociation constant K D is expressed as kD=k−1/k+1. (4)
Deactivation kinetics of hKv1.5 were determined by fitting a single exponential function to the tail current trace (obtained by depolarizing a cell to +30 mV for 300 ms, followed by a repolarizing pulse to -40 mV).
Normal Tyrode solution contained 140 mM NaCl, 5.4 mM KCl, 1.8 mM CaCl2, 0.5 mM MgCl2, 0.33 mM NaH2PO4, 5.5 mM glucose, and 5.0 mM HEPES (pH adjusted to 7.4 with NaOH). […]

[7] = molecular target: T7, hKv1.5 V516A mutant channel (Homo sapiens, UniProt P22460, V516A); assay: whole-cell patch-clamp of V516A mutant hKv1.5 current in CHO cells
T7 construct: Full-length cDNA encoding wild-type (WT) hKv1.5 (KCNA5) subcloned into the pcDNA3.1 expression vector; expressed in transfected cells; host or cells: CHO cells, transient transfection (pcDNA3.1), GFP cDNA co-transfected as a separate marker
Description: as §1, §2, §3, §4

[8] = molecular target: T8, hKv1.5 I508A mutant channel (Homo sapiens, UniProt P22460, I508A); assay: whole-cell patch-clamp of I508A mutant hKv1.5 current in CHO cells
T8 construct: Full-length cDNA encoding wild-type (WT) hKv1.5 (KCNA5) subcloned into the pcDNA3.1 expression vector; expressed in transfected cells; host or cells: CHO cells, transient transfection (pcDNA3.1), GFP cDNA co-transfected as a separate marker
Description: as §1, §5, §6, §4

[9] = from τD of current decay at +30 mV vs drug concentration

T6 sequence (P22460 whole entry): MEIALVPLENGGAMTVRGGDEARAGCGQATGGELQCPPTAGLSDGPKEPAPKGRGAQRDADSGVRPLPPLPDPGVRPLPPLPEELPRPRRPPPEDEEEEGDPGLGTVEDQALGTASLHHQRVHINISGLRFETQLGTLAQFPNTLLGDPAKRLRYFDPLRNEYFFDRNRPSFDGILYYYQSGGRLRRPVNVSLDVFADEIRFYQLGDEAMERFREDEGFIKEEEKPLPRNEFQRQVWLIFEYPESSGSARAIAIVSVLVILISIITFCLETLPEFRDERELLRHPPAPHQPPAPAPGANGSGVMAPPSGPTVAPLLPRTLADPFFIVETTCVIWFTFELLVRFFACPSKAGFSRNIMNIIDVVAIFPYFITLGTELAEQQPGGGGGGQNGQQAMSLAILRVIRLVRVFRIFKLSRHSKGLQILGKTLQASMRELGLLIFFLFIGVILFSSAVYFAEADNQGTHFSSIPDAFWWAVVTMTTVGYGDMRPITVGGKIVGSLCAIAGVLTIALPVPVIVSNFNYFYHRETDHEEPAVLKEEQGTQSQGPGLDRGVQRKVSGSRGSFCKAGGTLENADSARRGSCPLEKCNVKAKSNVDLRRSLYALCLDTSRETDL
T4 sequence (P22460 whole entry V505A): as the sequence (P22460 whole entry) above, with V505A counted along it
T8 sequence (P22460 whole entry I508A): as the sequence (P22460 whole entry) above, with I508A counted along it
T2 sequence (P22460 whole entry T480A): as the sequence (P22460 whole entry) above, with T480A counted along it
T7 sequence (P22460 whole entry V516A): as the sequence (P22460 whole entry) above, with V516A counted along it
T5 sequence (P22460 whole entry V512A): as the sequence (P22460 whole entry) above, with V512A counted along it
T3 sequence (P22460 whole entry T479A): as the sequence (P22460 whole entry) above, with T479A counted along it
T1 sequence (P22460 whole entry L510A): as the sequence (P22460 whole entry) above, with L510A counted along it

inhibition at 5 µM [1]: 11.2 ± 2.24%
inhibition at 5 µM ([2]; CHO, T480A, 5 μM HMQ1611, late current at +30 mV, n = 7, p < 0.01 vs. WT): 15.3 ± 2.5%
fold decrease in blocking potency compared with IC50 of WT channel ([2]; T480A vs WT): 7 fold
inhibition at 5 µM [3]: 51.1 ± 4.99%
inhibition at 5 µM ([4]; CHO, V505A, 5 μM HMQ1611, late current at +30 mV, n = 7, p < 0.01 vs. WT): 44 ± 4.4%
fold decrease in blocking potency compared with IC50 of WT channel ([4]; V505A vs WT): 3 fold
IC50 ([4]; V505A, Hill fit, n = 7): 6.44 ± 0.18 µM
inhibition at 5 µM [5]: 47.2 ± 3.86%
time to start of inhibition on exposure ([6]; 5 μM HMQ1611): 5 to 10 s
time to steady state inhibition ([6]; 5 μM HMQ1611): ≤ 3 min
peak current amplitude at the first depolarizing step ([6]; 5 μM HMQ1611, 1 Hz train, control 6.11 ± 0.99 nA, n = 7, p > 0.05): 5.97 ± 0.98 nA
decrease of peak amplitude of hKv1.5 current at the 20th pulse vs first pulse ([6]; 5 μM HMQ1611, 1 Hz, control 18.29 ± 2.20%, n = 7): 46.57 ± 4.19%
peak current amplitude at the first depolarizing step ([6]; 5 μM HMQ1611, 2 Hz train, control 5.82 ± 1.14 nA, n = 6, p > 0.05): 5.67 ± 0.99 nA
decrease of peak amplitude of hKv1.5 current at the 20th pulse vs first pulse ([6]; 5 μM HMQ1611, 2 Hz, control 32.73 ± 1.74%, n = 6): 66.47 ± 2.38%
steady state level of inhibition of hKv1.5 current ([6]; 5 μM HMQ1611, representative time course, end of 300 ms step to +30 mV, within 3 min): approximately 86 % inhibition
activation time constant ([6]; 5 μM HMQ1611, step to +30 mV, control 1.50 ± 0.25 ms, n = 7, p > 0.05): 1.47 ± 0.18 ms
inhibition at 5 µM ([6]; CHO, WT, 5 μM HMQ1611, late current at end of 300 ms step to +30 mV, n = 7): 83.9 ± 4.06%
IC50 ([6]; WT, late current at end of 300 ms depolarizing step to +30 mV, CHO cells, Hill fit, n = 7, read-out: IC50 for inhibition of hKv1.5 current): 2.07 ± 0.21 µM
recovery of hKv1.5 current after washout ([6]; after 5 μM HMQ1611, within 10 min after washout with normal Tyrode solution): 94.64 % of the control value
Kd ([6]; apparent dissociation constant, +30 mV, read-out: KD value derived by (k-1)/(k+1)): 4.48 µM
slope factor k of Boltzmann activation fit ([6]; during exposure to 5 μM HMQ1611, control 14.09, 6 cells, p < 0.01 vs. control): 1.34
V1/2 (voltage at half-maximal activation, tail currents) ([6]; during exposure to 5 μM HMQ1611, control -0.76 mV, 6 cells, p < 0.01 vs. control): -29.9 mV
apparent binding rate constant (k+1) [6, 9]: 6.65e+06 M⁻¹ s⁻¹
apparent unbinding rate constant (k-1) [6, 9]: 29.9 s⁻¹
deactivation time constant ([6]; in presence of 5 μM HMQ1611, tail current at -40 mV after +30 mV, control 14.8 ± 1.4 ms, n = 10, p > 0.05): 13.1 ± 2.3 ms
effect of intracellular dialysis on Kv1.5 currents ([6]; intracellular dialysis of cells with 5 μM HMQ1611 for 4 min after whole-cell configuration): did not change the Kv1.5 currents
inhibition at 5 µM ([7]; CHO, V516A, 5 μM HMQ1611, late current at +30 mV, n = 6, p < 0.01 vs. WT): 44.6 ± 5.48%
fold decrease in blocking potency compared with IC50 of WT channel ([7]; V516A vs WT): 4 fold
inhibition at 5 µM ([8]; CHO, I508A, 5 μM HMQ1611, late current at +30 mV, n = 7, p < 0.01 vs. WT): 16.2 ± 2.09%
fold decrease in blocking potency compared with IC50 of WT channel ([8]; I508A vs WT): 5 fold
IC50 ([8]; I508A, Hill fit, n = 7): 10.5 ± 0.41 µM
Compound: CNC(=O)c1ccc(OC)c(OCC(=O)Nc2ccc(F)c(Cl)c2)c1-c1c(C(=O)NC)ccc(OC)c1OCC(=O)Nc1ccc(F)c(Cl)c1 [HMQ1611]
